Assay results as given in patent US20200298233A1, “MICROFLUIDIC PAPER CHIP FOR DETECTING MICRO-ORGANISM, METHOD FOR PREPARING THE SAME AND METHOD FOR DETECTING MICRO-ORGANISM USING THE SAME” (BIOMAX CO., LTD., priority 2017, published 2020).
Values joined by “and” are separate entries in the source; they are usually repeats but may differ in a detail not shown here. Equal values may be shown once.

What was measured:
Salmonella spp. [1] = assay: Coloring reaction test of chromogenic reagents, 96 well plate; format: biochemical; conditions: chromogenic reagent terminal concentration 10 mM, 30 minutes at 37° C.
Staphylococcus aureus [2] = assay: as above; format: biochemical; conditions: chromogenic reagent terminal concentration 10 mM, 30 minutes at 37° C.
Esherichia coli O157 = assay: Bacterial lysis efficacy by measuring optical density (OD); format: cell-based, Escherichia coli O157; conditions: initial O.D = 0.8139
Listeria monocytogenes = assay: as above; format: cell-based; conditions: initial O.D = 0.8336
Staphylococcus aureus [3] = assay: as above; format: cell-based; conditions: initial O.D = 1.1877
Salmonella spp. [4] = assay: as above; conditions: initial O.D = 1.4448
Vibrio vulnificus [5] = assay: as above; conditions: initial O.D = 0.6143
Vibrio vulnificus [6] = assay: Coloring reaction test of chromogenic reagents, 96 well plate; format: biochemical; conditions: chromogenic reagent terminal concentration 10 mM, 30 minutes at 37° C.
[7] = system: 5 food risk microorganisms; assay: Bacterial lysis efficacy by optical density, overall statements; format: cell-based; conditions: table 7

Row | Compound | coloring reaction (Salmonella spp. [1]) | coloring reaction (Staphylococcus aureus [2]) | Optical density (Esherichia coli O157; detergent 0.1%) | Optical density (Esherichia coli O157; detergent 1%) | Optical density (Esherichia coli O157; detergent 2%) | Optical density (Esherichia coli O157; detergent 3%) | Optical density (Esherichia coli O157; detergent 5%) | Optical density (Listeria monocytogenes; detergent 0.1%) | Optical density (Listeria monocytogenes; detergent 0.5%) | Optical density (Listeria monocytogenes; detergent 1%) | Optical density (Listeria monocytogenes; detergent 2%) | Optical density (Listeria monocytogenes; detergent 3%) | Optical density (Listeria monocytogenes; detergent 5%) | Optical density (Staphylococcus aureus [3]; detergent 0.1%) | Optical density (Staphylococcus aureus [3]; detergent 1%) | Optical density (Staphylococcus aureus [3]; detergent 2%) | Optical density (Staphylococcus aureus [3]; detergent 3%) | Optical density (Staphylococcus aureus [3]; detergent 5%) | Optical density (Salmonella spp. [4]; detergent 0.1%) | Optical density (Salmonella spp. [4]; detergent 0.5%) | further results
1 | CCCCCCCC(=O)Oc1c[nH]c2cc(Cl)c(Br)cc12 [Magenta-caprylate, 5-Bromo-6-chloro-3-indoxyl caprylate] | higher intensity and speed | showed coloring reaction | – | – | – | – | – | – | – | – | – | – | – | – | – | – | – | – | – | – | –
2 | CCCCCCCCCCCCCCCC[N+](C)(C)CCCS(=O)(=O)[O-] [SB3-16, 3-(Hexadecyldimethylammonio)propane-1-sulfonate] | – | – | 0.9950 and 1.0011 and 0.9956 | 0.8049 and 0.7896 and 0.7856 | 0.8432 and 0.8338 and 0.8284 | 0.8710 and 0.8653 and 0.8610 | 0.9536 and 0.9258 and 0.9244 | 0.7770 and 0.8027 and 0.8073 | 0.7764 and 0.7530 and 0.7657 | 0.8133 and 0.8142 and 0.8238 | 0.7546 and 0.7725 and 0.7891 | 0.7213 and 0.7797 and 0.7969 | 0.6344 and 0.6340 and 0.6042 | 1.0492 and 1.0472 and 1.0449 | 1.1763 and 1.1734 and 1.1719 | 1.0764 and 1.0741 and 1.0744 | 1.0675 and 1.0649 and 1.0654 | 1.0721 and 1.0700 and 1.0711 | 0.6487 and 0.6399 and 0.6538 | 0.7598 and 0.7515 and 0.7651 | Optical density (Esherichia coli O157; detergent 0.5%): 1.0314 and 1.0172 and 1.0085; Optical density (Salmonella spp. [4]; detergent 1%): 0.4932 and 0.4918 and 0.4892; Optical density (Salmonella spp. [4]; detergent 2%): 0.4688 and 0.4680 and 0.4676; Optical density (Salmonella spp. [4]; detergent 3%): 0.4487 and 0.4508 and 0.4516; Optical density (Salmonella spp. [4]; detergent 5%): 0.4594 and 0.4580 and 0.4632; Optical density (Vibrio vulnificus [5]; detergent 0.1%): 0.1196 and 0.1210 and 0.1170; Optical density (Vibrio vulnificus [5]; detergent 0.5%): 0.0680 and 0.0627 and 0.0656; Optical density (Vibrio vulnificus [5]; detergent 1%): 0.0553 and 0.0506 and 0.0521; Optical density (Vibrio vulnificus [5]; detergent 2%): 0.0399 and 0.0421 and 0.0383; Optical density (Vibrio vulnificus [5]; detergent 3%): 0.0395 and 0.0407 and 0.0453; Optical density (Vibrio vulnificus [5]; detergent 5%): 0.0324 and 0.0317 and 0.0323
3 | 5-Bromo-6-chloro-3-indolyl-beta-D-glucopyranoside [Magenta-beta-glucopyranoside] | – | – | – | – | – | – | – | – | – | – | – | – | – | – | – | – | – | – | – | – | coloring reaction (Vibrio vulnificus [6]): unique coloring reaction
4 | 5-bromo-4-chloro-3-indoxyl-alpha-D-glucopyranoside [X-alpha-glucospyranoside] | – | – | – | – | – | – | – | – | – | – | – | – | – | – | – | – | – | – | – | – | coloring reaction (Vibrio vulnificus [6]): unique coloring reaction
5 | CCCCCCCCCCCC[N+](C)(C)CCCS(=O)(=O)[O-] [SB3-10, 3-(Dodecyldimethylammonio)propane-1-sulfonate] | – | – | 0.5979 and 0.5907 and 0.5816 | 0.5228 and 0.5223 and 0.5253 | 0.5845 and 0.5861 and 0.5779 | 0.6355 and 0.6371 and 0.6311 | 0.8160 and 0.8061 and 0.8134 | 0.7689 and 0.8003 and 0.7683 | 0.7694 and 0.7802 and 0.7866 | 0.7935 and 0.7994 and 0.8055 | 0.7242 and 0.7341 and 0.7357 | 0.6917 and 0.7252 and 0.7227 | 0.8414 and 0.8448 and 0.8431 | 0.9335 and 0.9313 and 0.9293 | 0.8872 and 0.8856 and 0.8847 | 0.8495 and 0.8478 and 0.8480 | 0.5582 and 0.5458 and 0.5385 | 0.8456 and 0.8446 and 0.8442 | 0.9125 and 0.9111 and 0.9138 | 0.4241 and 0.4359 | Optical density (Esherichia coli O157; detergent 0.5%): 0.6803 and 0.6818 and 0.6832; Optical density (Staphylococcus aureus [3]; detergent 0.5%): 0.9517 and 0.9486 and 0.9454; Optical density (Salmonella spp. [4]; detergent 1%): 0.4611 and 0.4597 and 0.4705; Optical density (Salmonella spp. [4]; detergent 2%): 0.4310 and 0.4345; Optical density (Salmonella spp. [4]; detergent 3%): 0.4184 and 0.4186 and 0.4199; Optical density (Salmonella spp. [4]; detergent 5%): 0.9464 and 0.9488 and 0.9479; Optical density (Vibrio vulnificus [5]; detergent 0.1%): 0.3351 and 0.3199 and 0.3176; Optical density (Vibrio vulnificus [5]; detergent 0.5%): 0.2124 and 0.2149 and 0.2105; Optical density (Vibrio vulnificus [5]; detergent 1%): 0.1822 and 0.1758 and 0.1891; Optical density (Vibrio vulnificus [5]; detergent 2%): 0.1627 and 0.1647 and 0.1624; Optical density (Vibrio vulnificus [5]; detergent 3%): 0.0869 and 0.0865 and 0.0893; Optical density (Vibrio vulnificus [5]; detergent 5%): 0.1477 and 0.1578 and 0.1677
6 | Triton X-100 | – | – | 0.8888 and 0.8930 and 0.8848 | 0.9722 and 0.9715 and 0.9720 | 0.9793 and 0.9819 and 0.9767 | 0.9052 and 0.9049 and 0.9035 | 0.9238 and 0.9183 and 0.9254 | 0.7013 and 0.7077 and 0.7059 | 0.7398 and 0.7403 and 0.7414 | 0.6622 and 0.6765 and 0.6766 | 0.7014 and 0.7164 and 0.7099 | 0.6407 and 0.6609 and 0.6608 | 0.6213 and 0.6340 and 0.6310 | 1.1248 and 1.1255 and 1.1291 | 1.2024 and 1.2028 and 1.2027 | 1.2247 and 1.2245 and 1.2231 | 1.1855 and 1.1810 and 1.1826 | 1.2147 and 1.2108 and 1.2034 | 1.0968 and 1.0927 and 1.0890 | 1.0965 and 1.0899 and 1.1089 | Optical density (Salmonella spp. [4]; detergent 1%): 0.8827 and 0.8879 and 0.8963; Optical density (Salmonella spp. [4]; detergent 2%): 0.9457 and 0.9452 and 0.9464; Optical density (Salmonella spp. [4]; detergent 3%): 0.8287 and 0.8303 and 0.8231; Optical density (Salmonella spp. [4]; detergent 5%): 0.8258 and 0.8240 and 0.8249; Optical density (Vibrio vulnificus [5]; detergent 0.1%): 0.3916 and 0.3935 and 0.3923; Optical density (Vibrio vulnificus [5]; detergent 0.5%): 0.3421 and 0.3417 and 0.3437; Optical density (Vibrio vulnificus [5]; detergent 1%): 0.2844 and 0.2794 and 0.2801; Optical density (Vibrio vulnificus [5]; detergent 2%): 0.3044 and 0.3089 and 0.3046; Optical density (Vibrio vulnificus [5]; detergent 3%): 0.2947 and 0.2950 and 0.2966; Optical density (Vibrio vulnificus [5]; detergent 5%): 0.2499 and 0.2478 and 0.2431
7 | O=P([O-])([O-])Oc1c[nH]c2ccc(Br)c(Cl)c12.[Na+].[Na+] [X-phosphate, 5-Bromo-4-chloro-3-indoxyl phosphate, disodium salt] | unique and strong coloring reaction | unique coloring reaction | – | – | – | – | – | – | – | – | – | – | – | – | – | – | – | – | – | – | –
8 | CCCCCCCc1ccc(C(O)CC[N+](C)(C)CCCS(=O)(=O)[O-])cc1 (stereo not shown) [C7BzO, 3-[[3-(4-heptylphenyl)-3-hydroxypropyl]-dimethylazaniumyl]propane-1-sulfonate] | – | – | – | – | – | – | – | – | – | – | – | – | – | – | – | – | – | – | – | – | lysis efficacy on addition to 1% (v/v) SB3-14 [7]: increased the most
9 | OC[C@H]1O[C@H](Oc2c[nH]c3cc(Cl)ccc23)[C@H](O)[C@@H](O)[C@@H]1O [Salmon-alpha-glucospyranoside, 6-Chloro-3-indoxyl-alpha-D-glucopyranoside] | unique and strong coloring reaction | unique coloring reaction | – | – | – | – | – | – | – | – | – | – | – | – | – | – | – | – | – | – | coloring reaction (Vibrio vulnificus [6]): unique coloring reaction
